One data set has as its system Candida albicans B3. The experiment in a line: microbe, parasite or virus in culture. To be noted: Candida albicans, B3, 24 h. The protocol: (§1) The assessment of antifungal potential of synthesized agents was carried out using four reference strains (C. albicans ATCC 10231, C. albicans SC5314, C. glabrata DSM […] and C. krusei DSM […]) and six clinical isolates of fluconazole-resistant C. albicans that were provided by the Hospital of Medical University of Gdansk, Poland. Moreover, four C. albicans isolates, assigned as B3, B4, Gu4 and Gu5, were used for investigation whether the synthesized fluconazole derivatives were effectively removed from the yeast cells by the drug efflux transporters, as in the case of fluconazole. These strains were kindly provided by Prof. Joachim Morschhäuser from University of Würzburg (Würzburg, Germany). Strains Gu4 and B3 were fluconazole-sensitive isolates obtained from early infection episodes, while Gu5 and B4 were the corresponding fluconazole-resistant isolates obtained from later episodes in the same patients treated with fluconazole. The lack of susceptibility of the Gu5 strain to fluconazole was a consequence of overexpression of CDR1/2 genes encoding ABC transporters, whereas the resistance of B4 strain was caused by overexpression of the MDR1 gene encoding a membrane transport protein of the major facilitator superfamily (MFS). All of these Candida spp. strains were maintained on YPD agar plates (1% (w/v) yeast extract, 2% (w/v) peptone, 2% (w/v) glucose, 2% (w/v) agar) at 30 °C for 16–24 h. For all of the assays aimed at assessing the antifungal potential of the synthesized agents, the yeasts were cultivated at 37 °C in RPMI 1640 medium (with L-glutamine, without sodium bicarbonate, Sigma-Aldrich, Darmstadt, Germany)) buffered to a pH of 7.0 with 0.165 M morpholinepropanesulfonic acid (MOPS) buffer (Sigma-Aldrich). In this study, we used the human foreskin fibroblast cell line Hs27 (ATCC CRL 1634TM) and the human endothelial cell line HUVEC (C2519A), purchased from Lonza Group AG, (Basel, Switzerland). The Hs27 cells were maintained in cell media consisting of Dulbecco’s modified Eagles medium (DMEM), (Corning, Arizona, USA) with 10% fetal bovine serum (FBS), (Corning, Port Elizabeth, South Africa), 1% penicillin/streptomycin (Sigma-Aldrich Inc., Darmstadt, Germany), and 1% L-glutamine (Corning, Arizona, USA). The human endothelial cell line was maintained in cell media consisting of Endothelial Cell Growth Medium-2 Single Quots Kit (Lonza, USA). Both cell lines were cultured in an incubator at 37 °C and 5% CO2.
(§2) Antifungal activity of the tested compounds against yeast cells was determined in 96-well plates as described in the CLSI document M27-A3 [39], with minor modifications (CLSI, 2008). […] The plates were incubated for 24 h at 37 °C. Each test was performed in triplicate. The final concentration of DMSO was ensured to be around 1% in all experiments.
(§3) For determination of minimum fungicidal concentrations (MFC), small aliquots of suspensions (around 10 μL) from each well were transferred using the pipette to YPD agar plates without inhibitors and incubated for 24 h at 37 °C.

A further data set concerns Candida albicans SC 5314. In words: microbe, parasite or virus in culture. Conditions: Candida albicans, SC5314, 24 h. The method, then:
as §1, §2, §3

For data set [1], the system named is Candida albicans ATCC 10231. The experiment in a line: microbe, parasite or virus in culture. Conditions: Candida albicans, ATCC10231, 24 h. The protocol: as §1, §2, §3
The next data set deals with Candida albicans 574. The experiment in a line: microbe, parasite or virus in culture. Conditions: Candida albicans, 574, 24 h. The protocol:
as §1, §2, §3

A further data set has as its system Candida krusei DSM 11226. In words: microbe, parasite or virus in culture. Conditions: Pichia kudriavzevii, DSM11226, 24 h. The protocol:
as §1, §2, §3

Another data set concerns Candida albicans 604. In words: microbe, parasite or virus in culture. To be noted: Candida albicans, 604, 24 h. The method, then:
as §1, §2, §3

In another data set the test system is Candida albicans 138. The experiment in a line: microbe, parasite or virus in culture. Conditions: Candida albicans, 138, 24 h. The method, then:
as §1, §2, §3

The next data set deals with Candida albicans Gu4. The experiment in a line: microbe, parasite or virus in culture. To be noted: Candida albicans, GU4, 24 h. The protocol:
as §1, §2, §3

The subject of another data set is Candida albicans B4. The experiment in a line: microbe, parasite or virus in culture. Conditions: Candida albicans, B4, 24 h. The method, then: as §1, §2, §3
In the next data set the test system is Candida albicans 247. In words: microbe, parasite or virus in culture. Conditions: Candida albicans, 247, 24 h. The protocol: as §1, §2, §3
In the next data set the test system is Candida albicans 48. The experiment in a line: microbe, parasite or virus in culture. Conditions: Candida albicans, 48, 24 h. The method, then: as §1, §2, §3
For data set [2], the system named is Candida glabrata DSM 6128. The experiment in a line: microbe, parasite or virus in culture. Conditions: Nakaseomyces glabratus, DSM6128, 24 h. The protocol:
as §1, §2, §3

The next data set deals with Candida albicans Gu5. The experiment in a line: microbe, parasite or virus in culture. To be noted: Candida albicans, GU5, 24 h. The protocol: as §1, §2, §3
The next data set relates to Candida albicans 190. In words: microbe, parasite or virus in culture. To be noted: Candida albicans, 190, 24 h. The method, then:
as §1, §2, §3

The test system of data set [3] is Candida spp. strains tested. The experiment in a line: Antifungal activity against the whole panel of strains tested. The format is cell-based. To be noted: Candida; all strains of Table 2. The protocol:
Antifungal activity of the tested compounds against yeast cells was determined in 96-well plates as described in the CLSI document M27-A3 [39], with minor modifications (CLSI, 2008). Suspensions of the microorganisms were prepared by taking one loop of pure culture into sterile water and adjusting optical density to 0.1 at 660 nm wavelength and further 50-fold dilution in RPMI 1640 medium, resulting in cell concentration of approximately 2 × 10^4 CFU/mL [21]. Then, 100 μL of cells were added to the wells of a 96-well microtiter plate that contained 16–500 μM tested compounds and 16–500 μM of FLC or 0.2–62 μM AmB. The plates were incubated for 24 h at 37 °C. Each test was performed in triplicate. […] The MIC90 was defined as the lowest concentration of drug showing no visible growth; MIC50 was defined as the concentration that yielded at least 50% growth inhibition when compared with the growth control well.

The next data set concerns C. tropicalis (clinical). Conditions: RPMI-1640, 200 – 0.4 μg/mL range. The protocol:
(§4) The selective activities of the FLC-conjugates were calculated according to the following formula
(§5) (1 picture or pasted object on this page, not shown here)

For the next data set, the system named is C. glabrata DSM 11226. To be noted: C. glabrata DSM 11226, RPMI-1640, 200 – 0.4 μg/mL range. The method, then: as §4, §5
Another data set relates to C. albicans ATCC 10231. Conditions: C. albicans ATCC 10231, RPMI-1640, 200 – 0.4 μg/mL range. The protocol:
as §4, §5

The next data set deals with C. krusei DSM 6128. Conditions: C. krusei DSM 6128, RPMI-1640, 200 – 0.4 μg/mL range. The method, then: as §4, §5
For data set [4] the following is noted: cited from earlier work. The method, then:
Fluconazole is water-soluble, safe for patients even at a high daily dose ([…]), can be applied either intravenously or orally, and has a beneficial pharmacokinetic profile and broad spectrum of activity.

Like-named read-outs stand apart in the source and are kept apart here. No end group written: not given here.

Results on four compounds are retold here after article PMC9026428, “New Peptide Based Fluconazole Conjugates with Expanded Molecular Targets” (Pharmaceutics, 2022).

One may read the MFC as the smallest concentration meeting the test's criterion for killing the fungus. Low readings indicate greater fungicidal potency, high ones weaker fungicidal potency. Usually MIC stands for the lowest concentration found to suppress growth. The low end stands for greater potency, the high end for weaker potency.

With `C[C@@H]1[C@H](O)[C@@H](C)/C=C/C=C/C=C/C=C/C=C/C=C/C=C/[C@H](O[C@@H]2O[C@H](C)[C@@H](O)[C@H](N)[C@@H]2O)C[C@@H]2O[C@](O)(C[C@@H](O)C[C@@H](O)[C@H](O)CC[C@@H](O)C[C@@H](O)CC(=O)O[C@H]1C)C[C@H](O)[C@H]2C(=O)O` [Amphotericin B (AmpB), Amphotericin B, reference compound], the MFC (in the data set with Candida albicans B3; against Candida albicans SC 5314; in data set [1]; in the data set with Candida albicans 574; against Candida krusei DSM 11226; against Candida albicans 604) was below 0.1 µM each time. In addition, the MFC (against Candida albicans 138; with Candida albicans Gu4; against Candida albicans B4; against Candida albicans 247; against Candida albicans 48; in [2]) was below 0.1 µM each time. Besides, the MFC against Candida albicans Gu5 and in the data set with Candida albicans 190 was below 0.1 µM in each case. Further, the MIC50 (in the data set with Candida albicans B3 (pH 7); in the data set on Candida albicans SC 5314 (pH 7); in [1] (pH 7); with Candida albicans 574 (pH 7); against Candida krusei DSM 11226 (pH 7); against Candida albicans 604 (pH 7)) was below 0.1 µM throughout. The MIC50 (against Candida albicans 138 (pH 7); against Candida albicans Gu4 (pH 7); in the data set on Candida albicans B4 (pH 7); in the data set on Candida albicans 247 (pH 7); against Candida albicans 48 (pH 7); in [2] (pH 7)) was below 0.1 µM each time. Moreover, the MIC50 with Candida albicans Gu5 (pH 7) and in the data set on Candida albicans 190 (pH 7) was below 0.1 µM throughout. In addition, the MIC90 (in the data set on Candida albicans B3 (pH 7); in the data set on Candida albicans SC 5314 (pH 7); in data set [1] (pH 7); in the data set with Candida albicans 574 (pH 7); in the data set on Candida krusei DSM 11226 (pH 7); against Candida albicans 604 (pH 7)) was below 0.1 µM in each case. The MIC90 (in the data set on Candida albicans 138 (pH 7); in the data set with Candida albicans Gu4 (pH 7); against Candida albicans B4 (pH 7); against Candida albicans 247 (pH 7); in the data set on Candida albicans 48 (pH 7); in [2] (pH 7)) was below 0.1 µM throughout. Further, the MIC90 against Candida albicans Gu5 (pH 7) and against Candida albicans 190 (pH 7) was below 0.1 µM each time. This compound returned an MIC in data set [3] below 0.1 µM.
For CFQWKRAMRKVR-NH2 [HLopt2-NH2], the “MIC50” value in the data set with C. tropicalis (clinical) was above 250 µg/mL; against C. glabrata DSM 11226, above 250 µg/mL; with C. albicans ATCC 10231 it was above 250 µg/mL; in the data set with C. krusei DSM 6128, 250 µg/mL. The entries for the “MIC90” value against C. tropicalis (clinical), in the data set with C. glabrata DSM 11226 and against C. krusei DSM 6128 were above 250 µg/mL, above 250 µg/mL and 250 µg/mL, respectively.
For `CCC(C)n1ncn(-c2ccc(N3CCN(c4ccc(OCC5COC(Cn6cncn6)(c6ccc(Cl)cc6Cl)O5)cc4)CC3)cc2)c1=O` (stereo not shown) [itraconazole], the “incidence rate of azole-induced liver injury” value in data set [4] (in vivo) is given as 2–4%.
Turning to `CC(=O)N1CCN(c2ccc(OCC3COC(Cn4ccnc4)(c4ccc(Cl)cc4Cl)O3)cc2)CC1` (stereo not shown) [ketoconazole], the “incidence rate of azole-induced liver injury” value in data set [4] is 2–10%.
